Like-named read-outs stand apart in the source and are kept apart here.
Experiments:
Type in all cases: in vivo
[1] = test system: Ipomoea hederacea; assay: Test Example 4: foliar spraying treatment, herbicidal effect from above ground weight; conditions: 3 weeks after spraying
Experimental: (§1) POA allylphenyl ether (4.1 parts by weight), POE-POP glycol (1 part by weight), POE sorbitan laurate (0.8 parts by weight), glycerin (2.6 parts by weight), dimethylformamide (65.9 parts by weight), N-methylpyrrolidone (5.1 parts by weight), cyclohexanone (15.4 parts by weight), and aromatic hydrocarbons (5.1 parts by weight) were mixed and dissolved to prepare an emulsion. The active ingredient (4 mg) of the composition of the present invention was dissolved in this emulsion (100 μL) to prepare a test emulsion. It should be noted that POA means “polyoxyalkylene”, POE means “polyoxyethylene”, and POP means “polyoxypropylene”.
(§2) A 300 cm^2 pot was filled with soil, and seeds of Zea mays, Setaria faberi, Sorghum halepense, Brachiaria platyphylla, Amaranthus palmeri, Senna obtusifolia and Ipomoea hederacea were sown into the surface layer, and then grown in a greenhouse after being covered lightly with soil. When each plant grew to a plant height of 7 to 11 cm, it was used for the test. The test emulsion was diluted so that the amount of the active ingredient became a predetermined amount, and sprayed on the foliage with a small sprayer at a spray water volume of 250 L per hectare.
(§3) For the evaluation of the herbicidal effects, the above ground weights of weeds in the untreated and treated areas were measured for each weed 3 weeks after spraying treatment, and the herbicidal effect (%) was calculated by the following calculation formula.
(§4) In addition, the expected values of the herbicidal effects were calculated from the herbicidal effects in a case where the compound (I) alone was applied and the herbicidal effects in a case where the compound (II) alone was applied by using the Colby's formula (Colby, S. R., Calculating synergistic and antagonistic responses of herbicide combinations, Weeds, 15, pp. 20-22 (1967)).
(§5) M indicates an herbicidal effect (%) in the application of the compound (1) alone, N indicates an herbicidal effect (%) in the application of the compound (II) alone, and E indicates an expected value (%) of the herbicidal effect in the combined application of the compound (I) and the compound (II). When the actual measured value (%) of the herbicidal effect in the combined application of the compound (I) and the compound (II) is greater than the expected value E, it can be regarded that the combined application of the compound (1) and the compound (II) has a synergistic effect.
(§6) Herbicidal effect (%)=[(above ground weight of weeds in untreated area)−(above ground weight of weeds in treated area)/(above ground weight of weeds in untreated area)]×100
(§7) The following grass species were used as grass species to be controlled [scientific names]. • Giant foxtail [Setaria faberi] • Johnson grass [Sorghum halepense] • Broadleaf signalgrass [Brachiaria platyphylla] • Palmer amaranth [Amaranthus palmeri] • Sicklepod [Senna obtusifolia] • Morning glory [Ipomoea hederacea]

[2] = test system: Brachiaria platyphylla; assay: as above; conditions: 3 weeks after spraying
Experimental: as §1, §2, §3, §4, §5, §6, §7

[3] = test system: Amaranthus palmeri; assay: as above; conditions: 3 weeks after spraying
Experimental: as §1, §2, §3, §4, §5, §6, §7

[4] = test system: Setaria faberi; assay: as above; conditions: 3 weeks after spraying
Experimental: as §1, §2, §3, §4, §5, §6, §7

[5] = test system: Sorghum halepense; assay: as above; conditions: 3 weeks after spraying
Experimental: as §1, §2, §3, §4, §5, §6, §7

[6] = test system: Senna obtusifolia; assay: as above; conditions: 3 weeks after spraying
Experimental: as §1, §2, §3, §4, §5, §6, §7

[7] = test system: Ambrosia artemisiifolia; assay: Test Example 1: seeds on filter paper moistened with chemical solution, herbicidal effect visually evaluated; conditions: visually evaluated 6 days after treatment; for pest or weed control at 0.2 ppm: amount of active ingredient 0.2 ppm
Experimental: As the compound (1), 1-methoxy-3-methyl-6-(1,1-dioxido-8-(trifluoromethyl)thiochroman-5-yl)-7-oxa-3,4-diazabicyclo[4.1.0]hept-4-en-2-one (Compound (I-3)) was used.
(§8) The compound (I) or compound (II) was prepared into a 5% emulsion using DMF (containing 1.5% Tween) and diluted with water to a prescribed dosage concentration. Commercially available preparations were dissolved in water and adjusted to a prescribed dosage concentration.
(§9) Seeds were soaked in 0.6% sodium hypochlorite for a predetermined time for surface sterilization and washed with water for use (seed disinfection). Seeds of Ambrosia artemisiifolia were used for the test.
(§10) Filter paper was placed on a cup (diameter: 10 cm, height: 4 cm) with a lid and moistened with 8 ml of chemical solution, and seeds were sown thereon, and after covering with a lid, grown in a constant temperature room.
(§11) The herbicidal effects were visually evaluated, 6 days after the treatment, as the herbicidal effect (%), by comparing with a state of an untreated group using a total of 21 scores of withering index from 0 to 20 (0: mortality rate equivalent to that of the untreated group, 20: mortality rate of 100%).
as §4
(§12) M indicates an herbicidal effect (%) in the application of the compound (I) alone, N indicates an herbicidal effect (%) in the application of the compound (II) alone, and E indicates an expected value (%) of the herbicidal effect in the combined application of the compound (T) and the compound (TT). When the actual measured value (%) of the herbicidal effect in the combined application of the compound (I) and the compound (II) is greater than the expected value E, it can be regarded that the combined application of the compound (I) and the compound (II) has a synergistic effect.

[8] = test system: Zea mays; assay: Test Example 4: foliar spraying treatment, herbicidal effect from above ground weight (useful plant); conditions: 3 weeks after spraying
Experimental: as §1, §2, §3
as §4, with “(1967)). […]” for “(1967)).”

[9] = test system: Ipomoea hederacea; assay: Test Example 6: foliar spraying treatment, herbicidal effect from above ground weight
Experimental: as §1
(§13) A test emulsion was prepared in the same manner as in Test Example 4.
as §2, with “mays” for “mays, Setaria faberi, Sorghum halepense, Brachiaria platyphylla, Amaranthus palmeri, Senna obtusifolia”, “9” for “11”, “cm,” for “cm, it was used for”, “above” for “test. The”
(§14) Test Examples 6-1 and 6-3 were evaluated in the same manner as in Test Example 4.
(§15) The expected values of the herbicidal effects in Test Example 6-2 were calculated using the following Colby's formula (Colby, S. R., Calculating synergistic and antagonistic responses of herbicide combinations, Weeds, 15, pp. 20-22 (1967)).
(§16) X indicates an herbicidal effect (%) by applying the compound (1) alone, Y and Z each indicate an herbicidal effect (%) by applying one of the two types of the compounds (II) alone, and E indicates an expected value (%) of the herbicidal effect by applying combinations of the compound (I) and two types of the compounds (II).
(§17) When the actual measured value (%) of the herbicidal effect by the combined application of the compound (I) and two types of the compounds (11) is greater than the expected value E, it can be regarded that the combined application of the compound (1) and two types of the compounds (II) has a synergistic effect.
The following grass species were used as grass species to be controlled [scientific names]. • Morning glory [Ipomoea hederacea]

[10] = test system: Zea mays; assay: Test Example 6: foliar spraying treatment, herbicidal effect from above ground weight (useful plant)
Experimental: as §1, §13
as §2, with “mays” for “mays, Setaria faberi, Sorghum halepense, Brachiaria platyphylla, Amaranthus palmeri, Senna obtusifolia”, “9” for “11”, “cm,” for “cm, it was used for”, “above” for “test. The”
as §14, §15, §16, §17
The following plants were used as useful plants [scientific names]. • Corn for animal feed [Zea mays]

[11] = test system: Abutilon theophrasti; assay: Test Example 3: seeds on filter paper moistened with chemical solution, herbicidal effect visually evaluated; conditions: 6 days after the treatment
Experimental: as §8, §9, §10, §11, §4, §12
The herbicidal effects were evaluated by the same method as in Test Example 1 except that the seeds used in the test were changed from Ambrosia artemisiifolia to Abutilon theophrasti.

[12] = test system: Triticum aestivum; assay: Test Example 5: spraying on the soil surface, herbicidal effect from above ground weight (useful plant); conditions: Flufenacet alone, 250 gai/ha, sprayed on the soil surface, seven weeks after spraying
Experimental: as §1, §3, §6, §13
(§18) A 300 cm^2 pot was filled with soil, and seeds of Triticum aestivum, multidrug-resistant Alopecurus myosuroides, Lolium multiflorum and Avena fatua were sown into the surface layer, and covered with soil to a thickness of 0.5 to 1 cm. The above test emulsion was diluted so that the amount of the active ingredient became a predetermined amount, and sprayed on the soil surface at a spray water volume of 250 L per hectare, followed by growth in an outdoor environment.
(§19) Seven weeks after spraying, the evaluation was carried out in the same manner as in Test Example 4, except that the above ground weights of weeds in the untreated and treated areas were measured for each weed.
The following plants were used as useful plants [scientific names]. • Wheat [Triticum aestivum]

[13] = test system: Avena fatua; assay: Test Example 5: spraying on the soil surface, herbicidal effect from above ground weight; conditions: Flufenacet alone, 250 gai/ha, sprayed on the soil surface, seven weeks after spraying
Experimental: as §1, §3, §6, §13, §18, §19
(§20) The following grass species were used as grass species to be controlled [scientific names]. • Blackgrass * [Alopecurus myosuroides] • Italian ryegrass [Lolium multiflorum] • Wild oat [Avena fatua]

[14] = test system: multidrug-resistant Alopecurus myosuroides; assay: as above; conditions: Flufenacet alone, 250 gai/ha; sprayed on the soil surface; seven weeks after spraying; Alopecurus myosuroides multidrug-resistant strain
Experimental: as §1, §3, §6, §13, §18, §19, §20

[15] = test system: Lolium multiflorum; assay: as above; conditions: Flufenacet alone, 250 gai/ha, sprayed on the soil surface, seven weeks after spraying
Experimental: as §1, §3, §6, §13, §18, §19, §20

[16] = test system: Digitaria ciliaris; assay: Test Example 2: seeds on filter paper moistened with chemical solution, herbicidal effect visually evaluated; conditions: Pinoxaden alone, 0.2 ppm, 6 days after the treatment
[17] = Ambrosia artemisiifolia, 144 h, applied alone, amount of active ingredient 0.8 ppm, read-out: Herbicidal effect (%)

`CCOCN(C(=O)CCl)c1c(C)cccc1CC` [Acetochlor] was tested, and the “Actual measured value of herbicidal effect” value (“Actual measured value” for short) ([1]; Acetochlor alone, 1,000 gai/ha) was 20%, the “Actual measured value” value ([2]; Acetochlor alone, 1,000 gai/ha) was 60% and the “Actual measured value” value ([3]; Acetochlor alone, 1,000 gai/ha) was 50%. The “Actual measured value” value ([4]; Acetochlor alone, 1,000 gai/ha) was 70%, the “Actual measured value” value ([5]; Acetochlor alone, 1,000 gai/ha) was 60% and the “Actual measured value” value ([6]; Acetochlor alone, 1,000 gai/ha) was 20%. The pest or weed control at 0.8 ppm [7, 17] was 40%, the “Actual measured value” value ([8]; Acetochlor alone, 1,000 gai/ha) was 0% and the “Actual measured value” value ([9]; Acetochlor alone, 2,000 gai/ha) was 20%. For the same molecule, the “Actual measured value” value ([10]; Acetochlor alone, 2,000 gai/ha) was 0%.

In the case of `CCNc1nc(Cl)nc(NC(C)C)n1` [Atrazine], the “Actual measured value” value ([1]; Atrazine alone, 500 gai/ha) is reported as 100%, the “Actual measured value” value ([2]; Atrazine alone, 500 gai/ha) is reported as 0% and the “Actual measured value” value ([3]; Atrazine alone, 500 gai/ha) is reported as 100%. For the same molecule, the “Actual measured value” value ([4]; Atrazine alone, 500 gai/ha) was 100%, the “Actual measured value” value ([5]; Atrazine alone, 500 gai/ha) was 0% and the “Actual measured value” value ([6]; Atrazine alone, 500 gai/ha) was 30%. The pest or weed control at 200 ppm ([7]; Ambrosia artemisiifolia, 144 h, applied alone, amount of active ingredient 200 ppm) was 10% and the “Actual measured value” value ([8]; Atrazine alone, 500 gai/ha) was 0%.

`O=C(O)c1nc(Cl)ccc1Cl` [Clopyralid] was tested, and the pest or weed control at 12.5 ppm ([7]; Ambrosia artemisiifolia, 144 h, applied alone, amount of active ingredient 12.5 ppm, read-out: Herbicidal effect (%)) was 90%, the “Actual measured value” value ([9]; Clopyralid alone, 125 gai/ha) was 30% and the “Actual measured value” value ([10]; Clopyralid alone, 125 gai/ha) was 0%.

`COc1nn(C(=O)[N-]S(=O)(=O)c2ccccc2OC(F)(F)F)c(=O)n1C.[Na+]` [Flucarbazone-Sodium, reference compound] was tested, and the Herbicidal effect ([11]; Flucarbazone-Sodium alone, 3.1 ppm) was 20%.

In the case of `CC(C)N(C(=O)COc1nnc(C(F)(F)F)s1)c1ccc(F)cc1` [Flufenacet, reference compound], the “Actual measured value” value [12] is reported as 30%, the “Actual measured value” value [13] is reported as 60% and the “Actual measured value” value [14] is reported as 40%. For the same molecule, the “Actual measured value” value [15] was 70% and the pest or weed control at 0.2 ppm ([7]; Ambrosia artemisiifolia, 144 h, compound applied alone, read-out: Herbicidal effect (%)) was 20%.

Molecule `CCc1cc(C)cc(CC)c1-c1c(OC(=O)C(C)(C)C)n2n(c1=O)CCOCC2` [Pinoxaden, reference compound] has a Herbicidal effect [16] of 10%.

In the case of `Cn1nc(C(F)(F)F)c(CS(=O)(=O)C2=NOC(C)(C)C2)c1OC(F)F` [Pyroxasulfone], the pest or weed control at 0.2 ppm ([7]; Ambrosia artemisiifolia, 144 h, applied alone, read-out: Herbicidal effect (%)) is reported as 30%, the “Actual measured value” value ([9]; Pyroxasulfone alone, 94 gai/ha) is reported as 60% and the “Actual measured value” value ([10]; Pyroxasulfone alone, 94 gai/ha) is reported as 0%.

In the case of `COC(=O)c1sccc1S(=O)(=O)NC(=O)Nc1nc(C)nc(OC)n1` [Thifensulfuron-methyl, reference compound], the Herbicidal effect ([11]; Thifensulfuron-methyl alone, 0.8 ppm) is reported as 10%.

For `CCCN(CCC)c1c([N+](=O)[O-])cc(C(F)(F)F)cc1[N+](=O)[O-]` [Trifluralin], the pest or weed control at 0.8 ppm [7, 17] was 10%.

With S-metolachlor the “Herbicidal effect (%)” value ([7]; compound applied alone, amount of active ingredient 0.8 ppm) was 20%.
